Data published in patent publication US20100317689A1, “Prodrugs of proton pump inhibitors including the 1h-imidazo[4,5-b] pyridine moiety” (priority 2006, published 2010).

Key:
[1] = Stability in human plasma; assay type: in vitro ADME
Experimental: (§1) Exemplary test compounds (prodrugs) of the invention can be incubated in plasma at 37° C. to test their stability and hydrolysis to give the corresponding drug TENATOPRAZOLE. The concentration of the compounds and also of the corresponding proton pump inhibitor TENATOPRAZOLE can be determined by a gradient HPLC-UV method. Although the half-lives of test compounds in plasma is expected to vary depending on their specific structure, nevertheless it is expected that in plasma the compounds of the invention are converted into the corresponding proton pump inhibitor TENATOPRAZOLE at a rate faster than the hydrolysis rate of the compound at neutral or near neutral pH. […] Therefore the compounds of the invention and especially the preferred compounds which have the chemical structure shown in Formulas 4 and 5 are good candidates to be used as prodrugs in intravenous injection and are expected to release the active proton pump inhibitor in vivo.

[2] = Stability at physiological pH 7.4 without plasma or blood; assay type: physicochemical
Experimental: as §1

[3] = Plasma concentration of tenatoprazole after oral dosing in rats; assay type: in vivo, rat
[4] = Stability in rat plasma at 37° C., hydrolysis to tenatoprazole; assay type: in vitro ADME
Experimental: as §1

[5] = system: histamine and carbachol-stimulated gastric acid secretion; experiment: Inhibition of gastric acid secretion of the conscious male rat, oral administration; assay type: in vivo; details: 40 μmole/kg, pylorus ligated 3 hours after administration, gastric juice collected two hours later
Experimental: Male rats (the Sprague-Dawley strain) are used in this assay. Salts of known benzimidazole type proton pump inhibitors, such as OMEPRAZOLE sodium salt, LANSOPRAZOLE sodium salt or TENATOPRAZOLE sodium salt (20 mg) is suspended in 10 ml of 0.1 N NaHCO3. 70 mg of each of the sodium salts of the compounds of the present invention are dissolved in 6 ml of 50% DMSO-50% 50 mM sodium phosphate buffer, pH 7.4. The doses administered to the rats are as follows (μmole per kg body weight of the rat): TENATOPRAZOLE (40 μmole/kg), a mixture of sodium 2-(4-(5-methoxy-2-((4-methoxy-3,5-dimethylpyridin-2-yl)methylsulfinyl)-1H-imidazo[4,5-b]pyridin-1-ylsulfonyl)phenoxy)acetate (Compound 1) and sodium 2-(4-(5-methoxy-2-((4-methoxy-3,5-dimethylpyridin-2-yl)methylsulfinyl)-3H-imidazo[4,5-b]pyridin-3-ylsulfonyl)phenoxy)acetate (1:1 of the isomeric mixture) 20 μmole/kg, and 40 μmole/kg. These drug solutions are orally administered. 3 hours after administration the abdomen of the rat is incised and the pylorus is ligated under light ether anethesia. […] The gastric juice is collected and acid output is quantified by titration using 0.1 N NaOH solution. […] Acid output is quantified by same method as described above, showing maximum histamine and carbachol-stimulated gastric acid secretion. Percentage inhibition is calculated from the fractional responses elicited by the test compound and a control experiment.

COc1ccc2c(n1)nc([S+]([O-])Cc1ncc(C)c(OC)c1C)n2S(=O)(=O)c1ccc(OCC(=O)[O-])cc1.[Na+] (stereo not drawn) [Compound 1, sodium 2-(4-(5-methoxy-2-((4-methoxy-3,5-dimethylpyridin-2-yl)methylsulfinyl)-1H-imidazo[4,5-b]pyridin-1-ylsulfonyl)phenoxy)acetate]
half-life [1]: 1.35 min

sodium 2-(4-(5-methoxy-2-((4-methoxy-3,5-dimethylpyridin-2-yl)methylsulfinyl)-1H-imidazo[4,5-b]pyridin-1-ylsulfonyl)phenoxy)acetate (Compound 1) and sodium 2-(4-(5-methoxy-2-((4-methoxy-3,5-dimethylpyridin-2-yl)methylsulfinyl)-3H-imidazo[4,5-b]pyridin-3-ylsulfonyl)phenoxy)acetate [1:1 mixture of Compound 1 and its positional isomer]
half-life in physiological pH 7.4 without the plasma or blood [2]: greater than 24 hr | plasma concentration of tenatoprazole ([3]; male Sprague-Dawley rats, oral 40 μmole/kg, 5 h postdose): 1940 ± 1685 ng/mL | plasma level and half-life of TENATOPRAZOLE compared with TENATOPRAZOLE itself ([3]; rat, oral): maintains higher plasma level of TENATOPRAZOLE with longer plasma half-life | half-life in rat plasma [4]: 1.2 min | inhibition of gastric acid secretion [5]: 83.3±13.7%
